Data set [1] concerns the target PSMA (Homo sapiens, UniProt Q04609). Description: Competitive binding (IC50) on LNCaP cells with ([^125I]I-BA)KuE as radioligand. Particulars: for IC50: LNCaP cells, ([^125I]I-BA)KuE radioligand, free mas3-chelator. As for the experimental part: Competitive binding experiments (IC50) were carried out in accordance with an established protocol using PSMA-expressing LNCaP cells and ([^125I]I-BA)KuE as standard radioligand. […] Please see the Supplementary Material for experimental details. For IC50 determination, approximately 150.000 cells/well were seeded on 24-well plates one day prior to the experiment. For internalization studies, 125.000 cells/well in PDL-coated 24-well plates were used. Cell counting was carried out using a Corning cell counter (Cytosmart, Eindhoven, The Netherlands).

For data set [2] the following is noted: cited from earlier work.
Data set [3] can be described thus: Lipophilicity, modified shake-flask method. The class given is physicochemical. As for the experimental part:
The lipophilicity of [^99mTc]Tc-PSMA-HSG was determined via a modified shake-flask method as described.

Data set [4] concerns mouse serum. Description: Plasma protein binding (B50), ultrafiltration, mouse serum. The class given is in vitro ADME. As for the experimental part: (§1) A detailed experimental procedure is provided in the Supplementary Material. […] Briefly, protein solutions (maximum concentration: […] Samples were briefly vortexed and incubated for 30 min at 37 °C. […] The filter units were then removed from the centrifugal tubes and washed twice with 300 µL PBS to recover the protein fraction. The activity in the filtrate, filter and protein fraction were then quantified using a γ-counter. […] The percentages of radioligand bound to the respective proteins are represented as means ± standard deviation (SD) of three independent experiments.

Data set [5] addresses human serum albumin (HSA) (Homo sapiens, UniProt P02768). Description: Plasma protein binding (B50), ultrafiltration, HSA. In kind it is in vitro ADME. As for the experimental part: as §1
Data set [6] deals with PSMA expressing LNCaP cells. Description: Dual tracer internalization assay. In kind it is cell-based, human. The settings on record: 60 min, 37 °C, 0.5 nM tracer, normalized to ([^125I]IBA)KuE. As for the experimental part:
Competitive binding experiments (IC50) were carried out in accordance with an established protocol using PSMA-expressing LNCaP cells and ([^125I]I-BA)KuE as standard radioligand. […] Please see the Supplementary Material for experimental details. […] The supernatant was removed, cells were washed with assay medium, and an acid wash (50 mM NaOAc in saline, pH 4.5) was performed to remove membrane-associated activity. Cells were then lysed using 1N NaOH, and internalized activity was quantified using a γ-counter. […] Tocris Bioscience, Bristol, UK) and normalized to the specific internalization observed for the radioiodinated reference compound in the same experiment. Data represent means ± SD (n=3) from three separate determinations.

Data set [7] relates to human serum. Kind of data set: Plasma protein binding (B50), ultrafiltration, human serum. The class given is in vitro ADME. As for the experimental part:
as §1

The test system of data set [8] is LNCaP xenograft bearing NSG mice. Description: Biodistribution in LNCaP xenograft bearing NSG mice. The settings on record: 6 h p.i., 0.1 nmol. Here is the method:
The biodistribution of [^99mTc]Tc-PSMA-HSG and of the reference compound [^99mTc]Tc-PSMA-I&S was investigated in LNCaP xenograft bearing NSG mice (see supplemental information).
Mice were injected intravenously with the respective ^99mTc-labeled tracer (24–34 MBq (fixed peptide dose of 1 nmol/mouse) or 3.7–7.6 MBq (fixed peptide doses of 0.1 nmol/mouse), respectively) and were sacrificed at 2 h (1 nmol-cohort) or 6 h p.i. (0.1 nmol-cohort), respectively. The organs of interest were dissected, and the activity concentration in weighed tissue samples was quantified using an AMG Automatic Gamma Counter (Hidex, Turku, Finland). Biodistribution data are given in %iD/g and represent means ± SD (groups of n = 5 animals). Statistical analysis (Multiple unpaired t-test) of biodistribution data and tumor/organ ratios was performed using GraphPad Prism (Boston, USA).
To induce LNCaP tumor growth, a suspension of LNCaP cells (approx. 5 x 10^6 cells/mouse) in 200 μl of a 1:1 mixture of serum-free DMEM and Matrigel (BD Biosciences) was injected subcutaneously into the right shoulder of male NOD scid gamma (NSG) mice (6-8 weeks, in-house breeding, Dpt. of Oncology, University of Lausanne). After approximately 9 weeks, tumor size reached 4-8 mm in diameter and the mice were used for the in vivo studies.

Where two headings read alike, the source gives them in different places. Square brackets hold non-standard residues; d marks the D form. Peptide text beside a SMILES is read from it. * marks the point of attachment. X1 = O=C(O)CC[C@H](NC(=O)N[C@@H](CCCCNC(=O)CCCCCCC(=O)*)C(=O)O)C(=O)O; d2Nal = N[C@H](Cc1ccc2ccccc2c1)C(=O)O; Mercaptoacetyl = O=C(CS)*

human serum albumin (HSA), sequence (P02768 25-609): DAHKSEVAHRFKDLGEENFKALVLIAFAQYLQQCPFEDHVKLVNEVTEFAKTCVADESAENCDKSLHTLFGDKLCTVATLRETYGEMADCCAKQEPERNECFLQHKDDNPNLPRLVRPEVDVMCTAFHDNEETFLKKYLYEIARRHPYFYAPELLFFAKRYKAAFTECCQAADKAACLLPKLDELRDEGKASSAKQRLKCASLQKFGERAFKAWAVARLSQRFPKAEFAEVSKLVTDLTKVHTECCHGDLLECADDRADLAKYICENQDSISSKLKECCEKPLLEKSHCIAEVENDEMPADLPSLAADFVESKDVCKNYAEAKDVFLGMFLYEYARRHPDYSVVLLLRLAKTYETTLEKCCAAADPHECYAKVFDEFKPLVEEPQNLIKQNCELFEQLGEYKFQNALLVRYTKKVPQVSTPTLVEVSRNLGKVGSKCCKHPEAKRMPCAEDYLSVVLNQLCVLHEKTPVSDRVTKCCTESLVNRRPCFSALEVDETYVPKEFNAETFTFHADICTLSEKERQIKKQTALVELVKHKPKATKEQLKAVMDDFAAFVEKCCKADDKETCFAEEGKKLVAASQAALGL
PSMA, sequence (Q04609 whole entry): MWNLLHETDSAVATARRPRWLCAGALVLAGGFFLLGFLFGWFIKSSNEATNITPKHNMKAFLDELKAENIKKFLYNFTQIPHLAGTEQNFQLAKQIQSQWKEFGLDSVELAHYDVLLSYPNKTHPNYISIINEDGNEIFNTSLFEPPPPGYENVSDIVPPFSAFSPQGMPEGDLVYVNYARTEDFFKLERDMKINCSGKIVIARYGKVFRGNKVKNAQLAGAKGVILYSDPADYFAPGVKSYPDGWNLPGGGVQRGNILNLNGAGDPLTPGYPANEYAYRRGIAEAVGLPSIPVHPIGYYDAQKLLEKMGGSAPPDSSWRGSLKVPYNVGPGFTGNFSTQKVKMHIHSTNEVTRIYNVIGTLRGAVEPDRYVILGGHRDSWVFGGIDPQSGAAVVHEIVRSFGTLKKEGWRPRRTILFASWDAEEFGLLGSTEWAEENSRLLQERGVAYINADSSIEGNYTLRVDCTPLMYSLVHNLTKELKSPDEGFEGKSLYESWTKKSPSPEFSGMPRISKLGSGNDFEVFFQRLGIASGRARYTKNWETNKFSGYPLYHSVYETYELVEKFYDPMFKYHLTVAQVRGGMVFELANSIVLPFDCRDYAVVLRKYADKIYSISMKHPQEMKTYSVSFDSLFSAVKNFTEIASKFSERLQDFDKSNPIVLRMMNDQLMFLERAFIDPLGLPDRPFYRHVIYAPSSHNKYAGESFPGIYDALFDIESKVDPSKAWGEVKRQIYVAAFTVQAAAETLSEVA

As for `CC(=O)SCC(=O)N[C@H](CO)C(=O)N[C@H](CO)C(=O)N[C@H](CO)C(=O)N[C@H](CCCCNC(=O)CCCCCN1/C(=C/C=C/C=C/C2=[N+](C)c3ccc(S(=O)(=O)[O-])cc3C2(C)C)C(C)(C)c2cc(S(=O)(=O)O)ccc21)C(=O)N[C@H](Cc1ccc(O)cc1)C(=O)N[C@H](Cc1ccc2ccccc2c1)C(=O)N[C@H](CCCCNC(=O)CCCCCCC(=O)NCCCC[C@H](NC(=O)N[C@@H](CCCC(=O)O)C(=O)O)C(=O)O)C(=O)O` [Aad-PSMA-HSG], in data set [1], the “decrease in PSMA affinity compared to PSMA-HSG” value (“decrease in PSMA affinity” for short) is “fifteen-fold reduction”.

The IC50 is the concentration that inhibits the measured activity by half. High values mean lower potency, low ones higher potency. Consider `CCN1/C(=C/C=C/C=C/C=C/C2=[N+](CCCCCC(=O)NCCCC[C@@H](NC(=O)[C@@H](CO)NC(=O)[C@@H](CO)NC(=O)[C@@H](CO)NC(=O)CSC(C)=O)C(=O)N[C@H](Cc3ccc(O)cc3)C(=O)N[C@H](Cc3ccc4ccccc4c3)C(=O)N[C@H](CCCCNC(=O)CCCCCCC(=O)NCCCC[C@H](NC(=O)N[C@@H](CCC(=O)O)C(=O)O)C(=O)O)C(=O)O)c3ccc(S(=O)(=O)[O-])cc3C2(C)C)C(C)(C)c2cc(S(=O)(=O)O)ccc21` [PSMA-HSG-Cy7-II], for which, in data set [1], the “decrease in PSMA affinity” value is “twofold decreased” and the IC50 turned out to be 73.1 ± 11.1 nM.

Regarding `CC(=O)SCC(=O)N[C@H](CO)C(=O)N[C@H](CO)C(=O)N[C@H](CO)C(=O)N[C@H](CCCCNC(=O)CCCCC[N+]1=C(/C=C/C2=CC(=C/C=C3/N(C)c4ccc(S(=O)(=O)O)cc4C3(C)C)/CCC2)C(C)(C)c2cc(S(=O)(=O)[O-])ccc21)C(=O)N[C@H](Cc1ccc(O)cc1)C(=O)N[C@H](Cc1ccc2ccccc2c1)C(=O)N[C@H](CCCCNC(=O)CCCCCCC(=O)NCCCC[C@H](NC(=O)N[C@@H](CCC(=O)O)C(=O)O)C(=O)O)C(=O)O` [PSMA-HSG-Cy7-I], in data set [1], the “decrease in PSMA affinity” value is “twofold decreased” and the half-maximal inhibitory concentration (IC50) turned out to be 70.7 ± 10.8 nM.

Turning to `O=C(O)CC[C@H](NC(=O)N[C@@H](CCCCNC(=O)c1ccc([18F])nc1)C(=O)O)C(=O)O` [[^18F]DCFPyL], in data set [2] (patients), the effective dose is 0.0165 mSv/MBq.

Take `O=C([O-])CN(CCN(CC(=O)[O-])Cc1cc(CCC(=O)NCCCCCC(=O)NCCCC[C@H](NC(=O)N[C@@H](CCC(=O)O)C(=O)O)C(=O)O)ccc1[O-])Cc1cc(CCC(=O)O)ccc1[O-].[68Ga+3].[OH3+]` [[^68Ga]Ga-PSMA-11]: the effective dose in data set [2] (human, in vivo) was 0.023 ± 0.004 mSv/MBq.

For orientation: logD means the decadic logarithm of the distribution of all forms, ionised or not, between an organic phase and buffer at a given pH. A high value points to a more lipophilic compound. For `C[N+]1=C(/C=C/C2=CC(=C/C=C3/N(CCCCCC(=O)NCCCC[C@@H](NC(=O)[C@@H](CO)NC(=O)[C@@H](CO)NC(=O)[C@@H](CO)NC(=O)CS)C(=O)N[C@H](Cc4ccc(O)cc4)C(=O)N[C@H](Cc4ccc5ccccc5c4)C(=O)N[C@H](CCCCNC(=O)CCCCCCC(=O)NCCCC[C@H](NC(=O)N[C@@H](CCC(=O)O)C(=O)O)C(=O)O)C(=O)O)c4ccc(S(=O)(=O)[O-])cc4C3(C)C)/CCC2)C(C)(C)c2cc(S(=O)(=O)O)ccc21` [[^99mTc]Tc-PSMA-HSG-Cy7-I, metal not drawn], the logD in data set [3] is -2.63. The “B50 MS” value in data set [4] is reported as 93 ± 16. Moreover, in data set [5], the “B50 HSA” value is listed as 165 ± 21. For the same compound, the “internalization [% of reference]” value in data set [6] was 17 ± 2 % of reference. In addition, in data set [7], the “B50 HS” value is recorded as 246 ± 27.

The compound `CC[N+]1=C(/C=C/C=C/C=C/C=C2/N(CCCCCC(=O)NCCCC[C@@H](NC(=O)[C@@H](CO)NC(=O)[C@@H](CO)NC(=O)[C@@H](CO)NC(=O)CS)C(=O)N[C@H](Cc3ccc(O)cc3)C(=O)N[C@H](Cc3ccc4ccccc4c3)C(=O)N[C@H](CCCCNC(=O)CCCCCCC(=O)NCCCC[C@H](NC(=O)N[C@@H](CCC(=O)O)C(=O)O)C(=O)O)C(=O)O)c3ccc(S(=O)(=O)[O-])cc3C2(C)C)C(C)(C)c2cc(S(=O)(=O)O)ccc21` [[^99mTc]Tc-PSMA-HSG-Cy7-II, metal not drawn] displayed a logD in data set [3] of -2.71. For the same compound, in data set [4], the “B50 MS” value is reported as 53 ± 7. Besides, the “B50 HSA” value in data set [5] is 149 ± 14. Moreover, in data set [6], the “internalization [% of reference]” value is 28 ± 7 % of reference. Also, the “B50 HS” value in data set [7] is 121 ± 16.

As for `O=C(O)CC[C@H](NC(=O)N[C@@H](CCCCNC(=O)CCCCCCC(=O)NCCCC[C@@H](NC(=O)[C@@H](Cc1ccc2ccccc2c1)NC(=O)[C@@H](Cc1ccc(O)cc1)NC(=O)[C@@H](CO)NC(=O)[C@@H](CO)NC(=O)[C@@H](CO)NC(=O)CS)C(=O)O)C(=O)O)C(=O)O` [[^99mTc]Tc-PSMA-I&S, [^99mTc]Tc-mas3-y-nal-k-Sub-KuE, metal not drawn, reference compound] (Mercaptoacetyl-[dS][dS][dS][dY][d2Nal][dK](X1)-OH), in data set [8], the “biodistribution, LNCaP tumor” value worked out at 12.9 ± 1.4 %iD/g; the “biodistribution, blood” value is reported as 0.15 ± 0.03 %iD/g; the “biodistribution, heart” value is reported as 0.24 ± 0.05 %iD/g; the “biodistribution, intestines” value is given as 1.8 ± 0.8 %iD/g. Besides, in data set [8], the “biodistribution, kidneys” value was determined as 147.0 ± 10 %iD/g; the “biodistribution, liver” value was determined as 0.8 ± 0.4 %iD/g; the “biodistribution, lung” value is given as 2.2 ± 0.2 %iD/g; the “biodistribution, muscle” value is on record as 0.2 ± 0.04 %iD/g. In addition, in data set [8], the “biodistribution, pancreas” value is 0.7 ± 0.1 %iD/g; the “biodistribution, salivary glands” value was 3.2 ± 0.8 %iD/g; the “biodistribution, spleen” value came to 14.2 ± 2.0 %iD/g; the “biodistribution, stomach” value stood at 0.3 ± 0.1 %iD/g. Also, in data set [2] (patients), the “absorbed dose coefficient of the urinary bladder wall” value is 0.000355 mGy/MBq, the effective dose is reported as 0.0052 mSv/MBq, the “kidney absorbed dose coefficient” value is listed as 0.0733 mGy/MBq and the “salivary gland absorbed dose coefficient” value is recorded as 0.0221 mGy/MBq. Also, the “lipophilicity [logD]” value in data set [3] was −3.01. For the same compound, the “B50 MS” value in data set [4] (mouse serum, molar excess of protein over radioligand for half-maximal binding, n = 3) was 652 ± 77. Also, the “B50 HSA” value in data set [5] (HSA in PBS, molar excess of protein over radioligand for half-maximal binding, n = 3) worked out at 324 ± 6. In addition, in data set [7] (human serum, molar excess of protein over radioligand for half-maximal binding, n = 3), the “B50 HS” value came out at 321 ± 18.

These data come from article PMC13013135, “[^99mTc]Tc-PSMA-HSG for PSMA-targeted Hybrid Surgical Guidance: a new addition to the PSMA-I&S/I&T family” (European Journal of Nuclear Medicine and Molecular Imaging, 2025).
